US20140107316A1, “DRUG DELIVERY CONJUGATES CONTAINING UNNATURAL AMINO ACIDS AND METHODS FOR USING” (priority 2012, published 2014)
pIC50: −log10 of the molar value. Entries after “also recorded” stand apart in the source; their conditions may differ.

How the values were obtained:
NCI/ADR-RES-Cl2 = test: In vitro test against cancer cell lines, NCI/ADR-RES-Cl2; type: cell-based, Human
Experimental: (§1) In vitro test against the various cancer cell lines. Cells are heavily seeded in 24-well Falcon plates and allowed to form nearly confluent monolayers overnight. Thirty minutes prior to the addition of the test compound, spent medium is aspirated from all wells and replaced with fresh folate-deficient RPMI medium (FFRPMI). A subset of wells are designated to receive media containing 100 μM folic acid. The cells in the designated wells are used to determine the targeting specificity. […] Following one rinse with 1 mL of fresh FFRPMI containing 10% heat-inactivated fetal calf serum, each well receives 1 mL of medium containing increasing concentrations of test compound (4 wells per sample) in the presence or absence of 100 μM free folic acid as indicated. Treated cells are pulsed for 2 h at 37° C., rinsed 4 times with 0.5 mL of media, and then chased in 1 mL of fresh medium up to 70 h. Spent medium is aspirated from all wells and replaced with fresh medium containing 5 μCi/mL ^3H-thymidine. […] A 450 μL aliquot of each solubilized sample is transferred to a scintillation vial containing 3 mL of Ecolume scintillation cocktail and then counted in a liquid scintillation counter. Final tabulated results are expressed as the percentage of ^3H-thymidine incorporation relative to untreated controls.
(§2) Folate receptor expressing cells. […] EC1456 was evaluated from 0.1-100 nM.

H23 = test: In vitro test against cancer cell lines, H23; type: cell-based, Human; settings: H23, FR status −; evaluated from 0.1-100 nM
Experimental: as §1, §2

A549 = test: In vitro test against cancer cell lines, A549; type: cell-based, Human; settings: A549, FR status −; evaluated from 0.1-100 nM
Experimental: as §1, §2

[1] = Maximum tolerated dose (MTD); type: in vivo, female Sprague-Dawley rats
Source text: Maximum tolerated dose (MTD). […] For Example, EC1456 has a MTD of at least 0.51 μmol/kg and EC0531 has a MTD of 0.33 μmol/kg, […] when administered by i.v., BIW, 2 wks in female Sprague-Dawley rats. Histopathologic changes were not observed with doses of EC1456 at or below the MTD.

folate receptors (FRs) = target: T1, folate receptors (FRs) (Homo sapiens, UniProt P15328); test: Relative affinity assay (3H-folic acid displacement on KB cells); type: binding; settings: compared to folic acid (relative affinity=1), 10% serum/FDRPMI
T1 construct: FR-positive KB cells were heavily seeded into 24-well cell culture plates; endogenous in cells; host or cells: KB cells (human cervical carcinoma)
T1 sequence (P15328 25-234): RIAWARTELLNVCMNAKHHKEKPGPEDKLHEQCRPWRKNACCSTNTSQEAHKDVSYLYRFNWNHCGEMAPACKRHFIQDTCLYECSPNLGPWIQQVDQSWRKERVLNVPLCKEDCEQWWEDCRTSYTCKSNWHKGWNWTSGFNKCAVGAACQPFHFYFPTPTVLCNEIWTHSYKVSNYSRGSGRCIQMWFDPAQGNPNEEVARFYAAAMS
Experimental: Relative Affinity Assay. The affinity for folate receptors (FRs) relative to folate was determined according to a previously described method (Westerhof, G. R., J. H. Schornagel, et al. (1995) Mol. Pharm. 48: 459-471) with slight modification. Briefly, FR-positive KB cells were heavily seeded into 24-well cell culture plates and allowed to adhere to the plastic for 18 h. Spent incubation media was replaced in designated wells with folate-free RPMI (FFRPMI) supplemented with 100 nM ^3H-folic acid in the absence and presence of increasing concentrations of test article or folic acid. Cells were incubated for 60 min at 37° C. and then rinsed 3 times with PBS, pH 7.4. Five hundred microliters of 1% SDS in PBS, pH 7.4, were added per well. Cell lysates were then collected and added to individual vials containing 5 mL of scintillation cocktail, and then counted for radioactivity. Negative control tubes contained only the ^3H-folic acid in FFRPMI (no competitor). Positive control tubes contained a final concentration of 1 mM folic acid, and CPMs measured in these samples (representing non-specific binding of label) were subtracted from all samples.

LNCaP = test: In vitro test against cancer cell lines, LNCaP; type: cell-based, Human; settings: FR status −, evaluated from 0.1-100 nM, read-out: EC1456 Activity (IC50)
Experimental: as §1, §2

IGROV1 = test: In vitro test against cancer cell lines, IGROV1; type: cell-based, Human
Experimental: as §1, §2

MDA-MB-231 = test: In vitro test against cancer cell lines, MDA-MB-231; type: cell-based, Human
Experimental: as §1, §2

MDA-MB-231 tumors = test: Established subcutaneous MDA-MB-231 breast cancer xenograft; type: in vivo, mice; settings: three times per week
Source text: Inhibition of Tumor Growth in Mice.
Toxicity as Measured by Weight Loss.
Triple negative breast cancer (TNBC) is a subtype characterized by lack of gene expression for estrogen, progesterone and Her2/neu. TNBC is difficult to treat, and its death rate is disproportionately higher than for any other subtype of breast cancer.

KB-CR tumors = test: Cisplatin-resistant KB-CR tumor model; type: in vivo; settings: 2 μmol/kg i.v., three times per week (M/W/F), 2 weeks
Experimental: Toxicity as Measured by Weight Loss. The percentage weight change of the mice was determined in mice (5 mice/group) on selected days post-tumor inoculation (PTI), and graphed.

CCCC(=O)OCN(C(=O)[C@@H](NC(=O)[C@H]1CCCCN1C)[C@@H](C)CC)[C@H](C[C@@H](OC(C)=O)c1nc(C(=O)N[C@@H](Cc2ccc(O)cc2)C[C@H](C)C(=O)NNC(=O)OCCSSC[C@@H](NC(=O)[C@H](CCC(=O)NC[C@H](O)[C@@H](O)[C@H](O)[C@H](O)CO)NC(=O)[C@@H](CCC(=O)O)NC(=O)[C@H](CCC(=O)NC[C@H](O)[C@@H](O)[C@H](O)[C@H](O)CO)NC(=O)[C@@H](CCC(=O)O)NC(=O)[C@H](CCC(=O)NC[C@H](O)[C@@H](O)[C@H](O)[C@H](O)CO)NC(=O)CC[C@@H](NC(=O)c2ccc(NCc3cnc4nc(N)[nH]c(=O)c4n3)cc2)C(=O)O)C(=O)O)cs1)C(C)C [EC1456]
Competable up to 100 nM (NCI/ADR-RES-Cl2; NCI/ADR-RES-Cl2): Yes | pIC50 (NCI/ADR-RES-Cl2; NCI/ADR-RES-Cl2, FR status ++, evaluated from 0.1-100 nM, read-out: EC1456 Activity (IC50)): 8.85 | EC1456 Activity (IC50) (H23): Inactive | EC1456 Activity (IC50) (A549): Inactive | Histopathologic changes ([1]; doses at or below the MTD): not observed | improvement in MTD over EC0531 ([1]; i.v., BIW, 2 wks): 65% | MTD ([1]; rat, in vivo, iv, BIW, 2 wks): ≥ 0.51 µmol/kg | Relative Affinity (folate receptors (FRs)): 0.27 | pIC50 (LNCaP): ~6.07 | Competable up to 100 nM (IGROV1; IGROV1): Yes | pIC50 (IGROV1; IGROV1, FR status +, evaluated from 0.1-100 nM, read-out: EC1456 Activity (IC50)): 9.14 | Competable up to 100 nM (MDA-MB-231; MDA-MB-231): Yes | pIC50 (MDA-MB-231; MDA-MB-231, FR status +, evaluated from 0.1-100 nM, read-out: EC1456 Activity (IC50)): 9.33 | weight loss / gross whole animal toxicity (% weight change) (MDA-MB-231 tumors; 2 μmmol/kg i.v., 2 weeks): did not cause gross whole animal toxicity; also recorded: not accompanied by significant weight loss | cures (MDA-MB-231 tumors; 2 μmmol/kg intravenous, 2 consecutive weeks): 4 of 5 | complete responses (KB-CR tumors): ⅕ | cures (KB-CR tumors): ⅘ | weight loss / host animal toxicity (KB-CR tumors): did not exhibit significant host animal toxicity; also recorded: did not cause any weight loss
